Assays:
Fusarium sp. = test: Fusarium ear infection of winter wheat under field conditions, determined visually; format: in vivo, Fusarium sp. on winter wheat cultivar "Ritmo"; conditions: winter wheat "Ritmo" inoculated with Fusarium sp. at GS 25-29, sprayed at GS 63, assessed three weeks after application, relative to untreated control, metconazole 45 g/ha, epoxyconazole 75 g/ha
Method: (§1) At growth stage GS 25-29 (tillering), outdoor winter wheat of the cultivar “Ritmo” was inoculated with rye grains infected with Fusarium sp. The active compounds were applied at growth stage GS 63 (beginning of flowering). Both metconazole and epoxyconazole were used as finished formulations (metconazole: trade name “Caramba”; epoxyconazole: trade name “Opus”; metconazole as SL=[…]; epoxyconazole as SC=suspensible concentrate). These formulations were diluted with water to the desired concentration, and the plants were treated by spraying with these diluted preparations. The active compounds were applied jointly as a tank mix. For comparison, the individual fungicides were also only employed on their own. Three weeks after application, the infection of the ears with Fusarium fungi was determined visually. The wheat grains were harvested and the DON content of the grains was determined after extraction and analysis by HPLC/MS. For comparative evaluation, the Fusarium infection and the DON value found for untreated wheat were defined as 100%. […] The expected efficacies for active compound combinations were determined using Colby's formula (S. R. Colby, Calculating Synergistic and Antagonistic Responses of Herbicide Combinations, Weeds, 15, pages 20-22, 1967) and compared with the observed efficacies.

deoxynivalenol (DON) = test: DON content of harvested wheat grains after field treatment (extraction, HPLC/MS); format: in vivo, Fusarium sp. on winter wheat cultivar "Ritmo"; conditions: relative to untreated wheat (33.7 mg/kg DON), sprayed at GS 63, metconazole 45 g/ha, epoxyconazole 75 g/ha
Method: as §1

| Compound | Effect on infection [%] (Fusarium sp.) | Reduction of DON content [%] (deoxynivalenol (DON)) |
| --- | --- | --- |
| Fc1ccc([C@]2(Cn3cncn3)O[C@H]2c2ccccc2Cl)cc1 (racemic) [epoxyconazole] | 5 | 0 |
| CC1(C)CCC(Cc2ccc(Cl)cc2)C1(O)Cn1cncn1 (stereo not shown) [metconazole] | 27 | 33 |

— patent US20090124678A1, “Combined Use of Metconazole and Epoxiconazole for Reducing or Preventing the Contamination of Cereals With Mycotoxins” (priority 2005, published 2009)
